Data taken from US10555987B2, “GHRH agonists for the treatment of ischemic disorders” (UNIVERSITY OF MIAMI, priority 2012, dated 2020).
pIC50: −log10 of the molar value. Non-standard residues stand in square brackets, D forms with d. Residues, ends and D or L forms follow the SMILES beside them. *: point of attachment. Phe(F5) = N[C@@H](Cc1c(F)c(F)c(F)c(F)c1F)C(=O)O; Desaminotyrosyl = O=C(CCc1ccc(O)cc1)*; NMeY = CN[C@@H](Cc1ccc(O)cc1)C(=O)O; Agmatine = N=C(N)NCCCCN*; Nle = CCCC[C@H](N)C(=O)O; Orn = NCCC[C@H](N)C(=O)O; Abu = CC[C@H](N)C(=O)O; GABA = NCCCC(=O)O

Tests used:
GH release = assay: In vivo endocrine activity, GH release after intravenous administration (Table 8); conditions: rat; for Stimulation of growth hormone levels after intravenous administration (in words): i.v.; for GH releasing potency in vivo relative to JI-38 (=1): i.v. injection
[1] = system: myocardial infarction (Fischer 344 rats); assay: Echocardiography in rat MI model, treatment from 2 hours post-surgery (Example 14); assay type: in vivo; conditions: echocardiographic measurements at day 2 post-MI
Method: MI was induced in female 6-month-old Fischer 344 rats by permanent ligation of left ventricular (LV) anterior descending coronary artery. Animals were randomly assigned to receive placebo or one of the following GHRH agonists (MR-356, MR-361, MR-367, MR-403, MR-404, MR-409 and MR-502) starting 2 hours post-surgery. All treatment (50 μg/kg) was given subcutaneously twice daily for 4 weeks. The Institutional Animal Care and Use committee of the University of Miami approved all protocols and experimental procedures.
Longitudinal evaluation of LV remodeling was obtained by echocardiographic measurements between baseline and 4 weeks following MI. Echocardiographic assessments were performed in anesthetized rats (1-2% isoflurane inhalation) using a Vevo-770 echocardiogram (Visual Sonics Inc., Toronto, Ontario, Canada) equipped with 25 MHz transducer. Cardiac dimensions were recorded from M-mode images using averaged measurements from 3 to 5 consecutive cardiac cycles. LV end-diastolic and end-systolic volumes and ejection fraction (EF) were calculated from bi-dimensional long-axis parasternal views taken through the infarcted area. All images were analyzed using Vevo 770 3.0.0 software (Visual Sonics).

GHRH receptor = biological target: T1, GHRH receptor (Homo sapiens, UniProt Q02643); assay: GHRH receptor binding, competition with 125I-labeled JV-1-42, human pituitary membrane homogenates (Table 5); design: Normal human pituitaries were purchased from the National Hormone and Peptide Program; tissue National Hormone and Peptide Program (A.F. Parlow, Harbor-UCLA Medical Center, Torrance, Calif.); host or cells: normal human pituitary, membrane fraction; conditions: for Relative affinity (Binding potency) vs GHRH: GHRH(1-29) = 1, Table 5; for Relative affinity (Binding potency) vs JI-38: JI-38 = 1, Table 5
T1 sequence (Q02643 23-423): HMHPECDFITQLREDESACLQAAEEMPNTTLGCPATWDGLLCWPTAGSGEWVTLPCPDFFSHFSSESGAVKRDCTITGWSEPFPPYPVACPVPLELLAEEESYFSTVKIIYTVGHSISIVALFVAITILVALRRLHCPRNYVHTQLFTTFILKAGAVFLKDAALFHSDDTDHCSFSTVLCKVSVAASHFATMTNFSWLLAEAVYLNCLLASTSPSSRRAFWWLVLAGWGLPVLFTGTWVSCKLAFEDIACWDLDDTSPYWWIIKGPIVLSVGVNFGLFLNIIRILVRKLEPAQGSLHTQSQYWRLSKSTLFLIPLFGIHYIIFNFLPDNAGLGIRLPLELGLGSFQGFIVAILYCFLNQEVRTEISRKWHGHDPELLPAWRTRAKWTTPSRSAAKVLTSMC
Method: Normal human pituitaries were purchased from the National Hormone and Peptide Program (A.F. Parlow, Los Angeles, County Harbor-UCLA Medical Center, Torrance, Calif.). Briefly, in competitive binding analysis, ^125I-labeled JV-1-42 ([…]) was displaced by GHRH agonists at 10^−6 to 10^−12 M.
The final binding affinities were expressed as IC50 values and were calculated by using the LIGAND PC computerized curve-fitting program of Munson and Rodbard as modified by McPherson.

[2] = system: myocardial infarction (Fisher-344 rats); assay: Morphometric analysis of infarct size, rat MI model (Example 13); assay type: in vivo; conditions: 50 μg/kg s.c. twice daily for 4 weeks; mean ± SEM
Method: (§1) Myocardial infarction (MI) was induced by permanent ligation of the left coronary artery in female 6-month-old Fisher-344 rats. Animals were randomly assigned to receive placebo (DMSO+propylene glycol) or one of the GHRH-agonists (JI-38, MR-356/P-20356, MR-409/P-27409, all 50 μg/kg), starting 4 weeks post-MI. All treatment was given subcutaneously twice daily for 4 weeks.
Rat hearts were processed using routine histological procedures. Samples were fixed in formalin.
Paraffin sections were deparaffinized and rehydrated by immersion in xylene followed by a graded series of ethanol. Antigen retrieval was performed by a heat-induced method with citrate buffer (Dako, Carpinteria, Calif.). After blocking with 10% normal donkey serum, sections were incubated with a primary antibody at 37° C. for 1 hour, followed by application of secondary antibody. Omission of the primary antibodies on parallel sections was used as negative control. Nuclei were counterstained with DAPI (Invitrogen, Carlsbad, Calif.). The total numbers of positively-stained cells (c-kit, CD45, phospho-histone H3 [pH3]) were quantified per slide to calculate the number of cells per section on each sample. Morphometric analysis was performed using Adobe Photoshop CS3 (San Jose, Calif.).

[3] = system: myocardial infarction (Fisher-344 rats); assay: Echocardiography in rat myocardial infarction model, treatment from 4 weeks post-MI (Example 13); assay type: in vivo; conditions: mean ± SEM
Method: as §1
Echocardiographic measurements were obtained at baseline, 2 days, 1, 2 and 4 weeks. Echocardiographic assessments were performed in anesthetized rats (2% isoflurane inhalation) using a Vevo-770 echocardiogram (Visual Sonics Inc., Toronto, Ontario, Canada) equipped with a 17.5-MHz transducer. Cardiac dimensions: LV end diastolic (LVEDD), end systolic (LVESD) diameters and fractional shortening (FS) were recorded from M-mode images using averaged measurements from 3 to 5 consecutive cardiac cycles according to the American Society of Echocardiography. Ejection fraction (EF) was calculated from bi-dimensional long-axis parasternal views taken through the infarcted area. All images were analyzed using Vevo 770 3.0.0 software (Visual Sonics Inc., Toronto, Ontario, Canada).

| Compound | Stimulation of growth hormone levels after intravenous administration (in words) (GH release) | GH releasing potency in vivo relative to JI-38 (=1) (GH release; 15 min after) | GH releasing potency in vivo relative to JI-38 (=1) (GH release; 30 min after) | EF at day 2 post-MI [1] | pIC50 (GHRH receptor; 125I-JV-1-42, human pituitary membranes, Table 5) | Relative affinity (Binding potency) vs GHRH (GHRH receptor) | Relative affinity (Binding potency) vs JI-38 (GHRH receptor) | MI size (%) [2] [%] | EF (4 Weeks) ([3]; 50 μg/kg s.c. twice daily for 4 weeks) [%] | EF (Baseline) ([3]; ejection fraction at baseline) [%] | GH releasing potency in vivo relative to JI-38 (=1) (GH release; 5 min after) |
| --- | --- | --- | --- | --- | --- | --- | --- | --- | --- | --- | --- |
| CCCC[C@H](NC(=O)[C@@H](NC(=O)[C@H](CC(=O)O)NC(=O)[C@H](CCC(N)=O)NC(=O)[C@H](CC(C)C)NC(=O)[C@H](CC(C)C)NC(=O)[C@H](CCCN)NC(=O)[C@H](CCCNC(=N)N)NC(=O)[C@H](C)NC(=O)[C@H](CO)NC(=O)[C@H](CC(C)C)NC(=O)[C@H](CCC(N)=O)NC(=O)[C@H](CC)NC(=O)[C@H](CC(C)C)NC(=O)[C@@H](NC(=O)[C@H](CCCN)NC(=O)[C@H](CCCNC(=N)N)NC(=O)[C@H](Cc1ccc(O)cc1)NC(=O)[C@H](CO)NC(=O)[C@H](CCC(N)=O)NC(=O)[C@@H](NC(=O)[C@H](Cc1ccccc1)NC(=O)[C@@H](NC(=O)[C@H](C)NC(=O)[C@H](CC(=O)O)NC(=O)[C@@H](C)NC(=O)[C@H](Cc1ccc(O)cc1)NC)[C@@H](C)CC)[C@@H](C)O)C(C)C)[C@@H](C)CC)C(=O)N[C@@H](CC(=O)O)C(=O)N[C@@H](CCCNC(=N)N)C(=O)NC [Peptide P-27403, [N—Me-Tyr^1, D-Ala^2, Gln^8, Orn^12, Abu^15, Orn^21, Nle^27, Asp^28]hGHRH(1-29)NH—CH3] (H-[NMeY][dA]DAIFTQSYR[Orn]VL[Abu]QLSAR[Orn]LLQDI[Nle]DR-NHMe) | most potent | 5.01 | 4.01 |  |  |  |  |  |  |  |  |
| CCCC[C@H](NC(=O)[C@@H](NC(=O)[C@H](CC(=O)O)NC(=O)[C@H](CCC(N)=O)NC(=O)[C@H](CC(C)C)NC(=O)[C@H](CC(C)C)NC(=O)[C@H](CCCN)NC(=O)[C@H](CCCNC(=N)N)NC(=O)[C@H](C)NC(=O)[C@H](CO)NC(=O)[C@H](CC(C)C)NC(=O)[C@H](CCC(N)=O)NC(=O)[C@H](CC)NC(=O)[C@H](CC(C)C)NC(=O)[C@@H](NC(=O)[C@H](CCCN)NC(=O)[C@H](CCCNC(=N)N)NC(=O)[C@H](Cc1ccc(O)cc1)NC(=O)[C@H](CO)NC(=O)[C@H](CCC(N)=O)NC(=O)[C@@H](NC(=O)[C@H](Cc1ccccc1)NC(=O)[C@@H](NC(=O)[C@H](C)NC(=O)[C@H](CC(=O)O)NC(=O)[C@@H](C)NC(=O)[C@H](Cc1ccc(O)cc1)NC)[C@@H](C)CC)[C@@H](C)O)C(C)C)[C@@H](C)CC)C(=O)N[C@@H](CC(=O)O)C(=O)NCCCCNC(=N)N [Peptide P-20361, [N—Me-Tyr^1, D-Ala^2, Gln^8, Orn^12, Abu^15, Orn^21, Nle^27, Asp^28, Agm^29] hGHRH (1-29)NH2] (H-[NMeY][dA]DAIFTQSYR[Orn]VL[Abu]QLSAR[Orn]LLQDI[Nle]D-Agmatine) |  |  |  | slightly better preserved |  |  |  |  |  |  |  |
| CCCC[C@H](NC(=O)[C@@H](NC(=O)[C@H](CC(=O)O)NC(=O)[C@H](CCC(N)=O)NC(=O)[C@H](CC(C)C)NC(=O)[C@H](CC(C)C)NC(=O)[C@H](CCCN)NC(=O)[C@H](CCCNC(=N)N)NC(=O)[C@H](C)NC(=O)[C@H](CO)NC(=O)[C@H](CC(C)C)NC(=O)[C@H](CCC(N)=O)NC(=O)[C@H](CC)NC(=O)[C@H](CC(C)C)NC(=O)[C@@H](NC(=O)[C@H](CCCN)NC(=O)[C@H](CCCNC(=N)N)NC(=O)[C@H](Cc1ccc(O)cc1)NC(=O)[C@H](CO)NC(=O)[C@H](CCC(N)=O)NC(=O)[C@@H](NC(=O)[C@H](Cc1ccccc1)NC(=O)[C@@H](NC(=O)[C@H](C)NC(=O)[C@H](CC(=O)O)NC(=O)[C@H](C)NC(=O)CCc1ccc(O)cc1)[C@@H](C)CC)[C@@H](C)O)C(C)C)[C@@H](C)CC)C(=O)N[C@@H](CC(=O)O)C(=O)NCCCCNC(=N)N [JI-38, [Dat^1, Gln^8, Orn^12,21, Abu^15, Nle^27, Asp^28, Agm^29]hGHRH(1-29)NH2, reference compound] (Desaminotyrosyl-ADAIFTQSYR[Orn]VL[Abu]QLSAR[Orn]LLQDI[Nle]D-Agmatine) |  |  |  | slightly better preserved | 8.77 | 2.4 | 1 | 42 ± 1.3 | 47 ± 2.4 | 88 ± 1.2 |  |
| CCCC[C@H](NC(=O)[C@@H](NC(=O)[C@H](CC(=O)O)NC(=O)[C@H](CCC(N)=O)NC(=O)[C@H](CC(C)C)NC(=O)[C@H](CC(C)C)NC(=O)[C@H](CCCN)NC(=O)[C@H](CCCNC(=N)N)NC(=O)[C@H](C)NC(=O)[C@H](CO)NC(=O)[C@H](CC(C)C)NC(=O)[C@H](CCC(N)=O)NC(=O)[C@H](CC)NC(=O)[C@H](CC(C)C)NC(=O)[C@@H](NC(=O)[C@H](CCCN)NC(=O)[C@H](CCCNC(=N)N)NC(=O)[C@H](Cc1ccc(O)cc1)NC(=O)[C@H](CO)NC(=O)[C@H](CC(N)=O)NC(=O)[C@@H](NC(=O)[C@H](Cc1c(F)c(F)c(F)c(F)c1F)NC(=O)[C@@H](NC(=O)[C@H](C)NC(=O)[C@H](CC(=O)O)NC(=O)[C@@H](C)NC(=O)CCc1ccc(O)cc1)[C@@H](C)CC)[C@@H](C)O)C(C)C)[C@@H](C)CC)C(=O)N[C@@H](CO)C(=O)N[C@@H](CCCNC(=N)N)C(=O)NCCCC(N)=O [Peptide P-25502, [Dat^1, D-Ala^2, Fpa5^6, Orn^12, Abu^15, Orn^21, Nle^27, Gab^30]hGHRH(1-30)NH2] (Desaminotyrosyl-[dA]DAI[Phe(F5)]TNSYR[Orn]VL[Abu]QLSAR[Orn]LLQDI[Nle]SR[GABA]-NH2) | most potent | 5.40 | 5.83 |  |  | 58.0 | 24.4 |  |  |  | 6.76 |
